Results on three compounds are retold here after US20230201158A1, “PHARMACEUTICAL COMPOSITION CAPABLE OF INHIBITING REPLICATION OF CORONAVIRUS” (MAHIDOL UNIVERSITY, priority 2020, published 2023).

Molecules are shown by their SMILES. Like-named read-outs stand apart in the source and are kept apart here.

The subject of data set [1] is SARS-CoV-2. It is filed as cell-based.
Data set [2] in a line: Cytotoxicity test by MTT assay. It is filed as cell-based, African green monkey (Cercopithecus aethiops). As to conditions: African green monkey (Cercopithecus aethiops), Vero E6 cells (kidney epithelial cells, ATCC #C1008), read-out: 50% cytotoxic concentration (CC50). As to the method:
(§1) According to the present disclosure, Vero E6 cells, African green monkey (Cercopithecus aethiops) kidney epithelial cells (ATCC #C1008), were used for the antiviral screening. The cells were grown in Dulbecco's Modified Eagle Medium (DMEM) (Gibco, USA) with 10% fetal bovine serum (FBS) (Gibco, USA). For Vero cells (African green monkey epithelial cells), these cells were cultured in Minimum Essential Medium (MEM) (Gibco, USA) supplemented with 10% FBS and L-glutamine (Gibco, USA). All cultures were grown at 37° C. in 5% CO2 atmosphere and used in the experiments described in the following examples.
(§2) For Cytotoxicity Test by using MTT assay, the Vero E6 cells were cultured in 96-well plates with 10,000 cells per well and kept in an incubator for 24 hours. Then, the cells were incubated with the two active compounds from the B. rotunda extract, Panduratin A and Pinostrobin, in the incubator for 48 hours. When the given time was completed, 100 uL of […] MTT solvent was added and cells were incubated in the incubator for another 3 hours. MTT solvent was removed and 100 uL DMSO was added. Light absorbance was measured at 570 nm by a microplate reader, and 50% cytotoxicity concentration (CC50) was calculated for each replicate.

In data set [3] the test system is SARS-CoV-2. The data set is described as follows: Antiviral activity test, immunofluorescence high-content imaging, post-infection treatment. The class given is cell-based.
Data set [4] has as its system SARS-CoV-2. The data set is described as follows: Plaque assay of viral output, pre-entry phase. It is filed as cell-based. As to conditions: 50 μM, FIG. 9.
Data set [5] has as its system Vero E6 cells. The data set is described as follows: Cytotoxicity test by MTT assay. It is filed as cell-based, African green monkey (Cercopithecus aethiops). As to conditions: 48 h, read-out: 50% cytotoxic concentration (CC50). As to the method: as §1, §2
Data set [6] has as its system SARS-CoV-2. The data set is described as follows: Anti-SARS-CoV-2 effect at the pre-entry phase, high-content imaging. The class given is cell-based. The note with it: pre-incubated with virus 1 h, adsorption 2 h on Vero E6, washed, 48 h.
Data set [7] has as its system SARS-CoV-2. The data set is described as follows: Plaque assay of viral output, post-infection treatment. As to conditions: FIG. 6. The class given is cell-based. The method, then: Furthermore, the viral output of SARS-CoV-2 in the present disclosure was reported as the infectious titers that were determined by plaque assay. In brief, Vero cell monolayer was seeded into 6-well plate 24 hours before the infection. The cells were inoculated with a serial dilution of the virus and incubated for viral adsorption for 1 hour at 37° C. Then, the cells were overlaid with 3 mL/well of overlay medium containing MEM supplemented with 5% FBS and 1% agarose. To allow plaque to develop, the culture was incubated at 37° C. in 5% CO2 for 3 days. After that, plaque phenotypes were visualized by staining with 0.33% Neutral Red solution (Sigma, USA) for 5 hrs. Plaque numbers were counted and calculated as plaque-forming unit (PFU) per milliliter (mL).

The subject of data set [8] is Vero E6 cells. The note with it: read-out: CC50, pre-entry phase, pre-entry condition.

In the case of `COc1cc(O)c2c(c1)O[C@H](c1ccccc1)CC2=O` [Pinostrobin], in the data set on SARS-CoV-2 [1] (72 h, 25 μM, vehicle 4.5 log PFU/mL), the “Virus titer (reduced in)” value is listed as 3 log PFU/mL. Further, the Virus titer in the data set with SARS-CoV-2 [1] (72 h, 50 μM, vehicle 4.5 log PFU/mL) came to 2.0 log PFU/mL. In data set [2], the CC50 at 48 h is more than 100 µM. The IC50 in the data set on SARS-CoV-2 [3] (Severe acute respiratory syndrome coronavirus 2, Vero C1008, read-out: 50% inhibition concentration (IC50)) came to 0.44 µM.
Take `COc1cc(O)c(C(=O)[C@@H]2[C@H](CC=C(C)C)C(C)=CC[C@H]2c2ccccc2)c(O)c1` [Panduratin A]: in the data set with SARS-CoV-2 [1] (72 h, 5 μM, vehicle 4.5 log PFU/mL), the “Virus titer (reduced in)” value is listed as 3 log PFU/mL. Also, the “Reduction of virus titers (result in words)” value in the data set with SARS-CoV-2 [1] (primary human alveolar cells, FIG. 10) is “reduced virus titers in a dose-dependent manner”. Also, the “Suppression of the infectious virion production” value with SARS-CoV-2 [4] was “absolutely suppressed”. For the same compound, the CC50 with Vero E6 cells [5] is 14.7 µM; with Vero E6 cells [8], 43.5 µM. Also, the IC50 in the data set on SARS-CoV-2 [3] (Vero E6 cells infected 2 h, then treated 48 h (post-infection), read-out: 50% inhibition concentration (IC50)) turned out to be 0.81 µM; in the data set with SARS-CoV-2 [6], 5.3 µM. The “Inhibition of coronavirus replication in plaque assay (result in words)” value in the data set on SARS-CoV-2 [7] is “significantly lower than that of Hydroxychloroquine”.
With `CCN(CCO)CCCC(C)Nc1ccnc2cc(Cl)ccc12` (centres unmarked) [Hydroxychloroquine, reference compound], the CC50 at 48 h in data set [2] was more than 100 µM. Also, the IC50 with SARS-CoV-2 [3] (Severe acute respiratory syndrome coronavirus 2, Vero C1008, read-out: 50% inhibition concentration (IC50), given in ug/mL beside the uM value) stood at 1.71 µg/mL.
